Data on 58 compounds can be found in paper PMC12040169 (PLOS Biology, 2025).

A short description of the series: in vitro. As to conditions: human, hela cells, % viability.

On to `CCOc1ccnc(N2CCN(C(=O)CCc3ccsc3)CC2)n1` [CBK304942], for which the viability at 28.5 h, 10 µM is 99.4%.
`Ic1ccc2ncnc(NCCN3CCOCC3)c2c1` [CBK265655]: the viability at 28.5 h, 10 µM was 108%.
Turning to `CCCn1c(SCc2nc(N)nc(Nc3ccccc3CC)n2)n[nH]c1=O` [CBK296966], the viability at 28.5 h, 10 µM turned out to be 86.6%.
For `Cc1cccc(CN2CCC[C@@H]3CN(C(=O)CC(C)C)C[C@@H]32)n1` [CBK285291], the viability at 28.5 h, 10 µM stood at 108%.
For the compound `Cc1ccc2cc(CN(Cc3ccccc3)S(C)(=O)=O)c(O)nc2c1` [CBK269329], the viability at 28.5 h, 10 µM was 94.4%.
`O=C(O)c1cccc(NC(=O)c2c(C(=O)O)cccc2[N+](=O)[O-])c1` [CBK261096]: the viability at 28.5 h, 10 µM was 99.6%.
Still for that read-out and setting: in the case of `COc1cc(/C=N/NC(=O)CCc2c(C)n[nH]c2C)ccc1O` [CBK262925] it was 90.1%.
Same read-out and setting: in the case of `Cc1onc(-c2ccccc2)c1C(=O)NC(=S)Nc1sc2c(c1C#N)CCC2` [CBK267492] it was 89.1%; in that of `COc1ccc(C(=O)Nc2cc(C)c3c(=O)oc4ccccc4c3n2)cc1` [CBK287435], 79.6%.
Still for that read-out and setting: in the case of `COC(=O)[C@@H]1Cc2ncn(C(C)C)c2CN1C(=O)c1ccc(F)cc1` [CBK288990] it was 80.6%.
For `O=C(c1ccc(-c2nccnc2NCc2cccs2)cc1)N1CCOCC1` [CBK037059], the viability at 28.5 h, 10 µM amounted to 98.8%.
Still for that read-out and setting: the value for `COc1cc(Br)c(-c2nnn[nH]2)cc1OC` [CBK270093] was 108%.
On the same count and under the same terms, in the case of `COc1ccc(CN2CCCC(c3nccnc3-c3cccc(NC(C)=O)c3)C2)cc1` (stereo not shown) [CBK286135] it was 104%.
`Cc1onc(-c2c(Cl)cccc2Cl)c1N(C)C(=O)N1CCCCC1` [CBK086555]: the viability at 28.5 h, 10 µM came out at 109%.
With `NCCc1nc2ccccc2[nH]1` [CBK278287C], the viability at 28.5 h, 10 µM turned out to be 91.8%.
Still for that read-out and setting: the value for `Nc1ncc(-c2cccc3cccnc23)nc1N1CCOCC1` [CBK063383] was 93.2%.
With `O=C1NC(=O)C(=Cc2cccc(OCCOc3ccc([N+](=O)[O-])cc3)c2)C(=O)N1` [CBK126857], the viability at 28.5 h, 10 µM (bulk resorufin, single well) stood at 95.7%.
As for `CCCC(=O)c1ccc(S(=O)(=O)N2CCCN(Cc3cccc4cccnc34)CC2)cc1` [CBK062909], the viability at 28.5 h, 10 µM came to 93%.
The same measure, in the same setting: in the case of `CCOc1ccc2[nH]c(C(=O)NC3CCCN(C)C3)c(C)c2c1` (stereo not shown) [CBK282530] it was 109%; in that of `Cc1nc(NCCCn2ccnc2)c2ccccc2n1` [CBK051987], 95.1%; in that of `COc1ccc(-c2csc(NC(=O)NS(=O)(=O)c3ccc(C)cc3)n2)cc1` [CBK296117], 88%.
Still for that read-out and setting: the value for `COCCN(C)S(=O)(=O)c1cc(C)c(Cl)cc1C` [CBK043867] was 105%; that for `CCCN1CCC(NC(=O)c2cc(COc3cccc(F)c3)[nH]n2)CC1` [CBK306753] was 88.5%.
For `O=C(O)C1CCN(C(=O)CCN2C(=O)[C@@H]3Cc4ccccc4CN3C2=O)CC1` [CBK286682], the viability at 28.5 h, 10 µM stood at 88.2%.
As for `COc1cc(CNc2nccnc2-c2ccc(C(=O)N3CCOCC3)cc2)cc(OC)c1` [CBK036866], the viability at 28.5 h, 10 µM stood at 99.2%.
Same read-out and setting: in the case of `COc1ccc(-c2cnc(N)c(N[C@H](C)c3ccccc3)n2)c(OC)c1OC` [CBK063747] it was 105%; in that of `COc1ccccc1-n1c(C)c(C(C)=O)c2cc(O)ccc21` [CBK115320], 86.3%.
As for `CCC(C)(C)NC(=NC#N)Nc1cccnc1` [CBK016580], the viability at 28.5 h, 10 µM was found to be 85.1%.
For `c1ccc(CN2CCC3(CC2)CNCc2ccccc2O3)cc1` [CBK282605], the viability at 28.5 h, 10 µM turned out to be 88.4%.
Same read-out and setting: the value for `O=C(O)C(CC(=O)N1CCOCC1)NCc1ccccc1` (stereo not shown) [CBK267000] was 100%; that for `COc1nc2nonc2nc1OC` [CBK028544] was 110%; that for `CCc1nc(CN2CCCC(NC(C(N)=O)c3ccccc3)C2)no1` (stereo not shown) [CBK305348] was 97.4%.
As to `Clc1ccc(CNc2ncc(-c3ccc(N4CCOCC4)cc3)n3ccnc23)cc1Cl` [CBK091229], the viability at 28.5 h, 10 µM was determined as 84.3%.
In the case of `CCNC(=O)Nc1ncc(-c2ccc(Oc3ccccc3)cc2)c2cccnc12` [CBK070636], the viability at 28.5 h, 10 µM came to 104%.
Still for that read-out and setting: the value for `Cn1ncc2c(NCc3cccc(Cn4cncn4)c3)ncnc21` [CBK304241] was 89.9%.
For `CS(=O)(=O)NC1CCCN(Cc2nc(N)c3ccccc3n2)C1` (stereo not shown) [CBK304889], the viability at 28.5 h, 10 µM is 93.8%.
On the same count and under the same terms, in the case of `Cn1cccc1CN1CCCC(n2c(=O)oc3ccccc32)C1` (stereo not shown) [CBK285111] it was 103%.
For the compound `O=C(O)COCC(=O)N1CCC2(CC1)OCc1cc(F)ccc1O2` [CBK060859], the viability at 28.5 h, 10 µM (bulk resorufin, single well) is 106%.
For the compound `CN(C(=O)C1CCN(C(=S)NCc2ccccc2)CC1)C(c1ccccc1)c1ccccn1` (stereo not shown) [CBK060476], the viability at 28.5 h, 10 µM worked out at 91.7%.
Same read-out and setting: the value for `N#Cc1ccc(Oc2cccc(/N=C/c3ccc(/C=N/c4cccc(Oc5ccc(C#N)cc5)c4)cc3)c2)cc1` [CBK261157] was 93.7%; that for `COc1ccc(S(=O)(=O)N2CCOCC2)cc1C(=O)N1CCCC(C)C1` (stereo not shown) [CBK305011] was 110%.
As to `OCc1ncccc1OCCOC1CCCCO1` (stereo not shown) [CBK045702], the viability at 28.5 h, 10 µM came to 97.5%.
In the case of `Cc1ccc(NC(=S)NCCNc2ccccn2)cc1Cl` [CBK297544], the viability at 28.5 h, 10 µM was found to be 105%.
Still for that read-out and setting: the value for `c1cnc(-c2nnn[nH]2)c(-c2ccc(COc3ccc4c(c3)OCO4)cc2)n1` [CBK050812] was 107%; that for `Cc1cc(=O)n(CC(=O)NC(C)Cc2ccccn2)c2ccccc12` (stereo not shown) [CBK281420] was 90.3%.
Still for that read-out and setting: in the case of `O=C(CSc1nnc(-c2ccco2)[nH]1)Nc1cccc(Cl)c1` [CBK293990] it was 96.7%; in that of `Cc1cc(C)n2nc(S(N)(=O)=O)c(C#N)c2n1` [CBK025767], 90.7%.
Still for that read-out and setting: the value for `CCn1cc(C(=O)O)c(=O)c2cc(F)c(N3CCN(C(=S)NC(=O)c4c(-c5ccccc5)noc4C)CC3)cc21` [CBK267490] was 86.8%; that for `COc1ccc2nc(NC(=O)c3ccc4c(c3)OCCO4)sc2c1` [CBK287572] was 103%; that for `FC(F)(F)c1nc2ccccc2nc1OCCN1CCNCC1` [CBK113302] was 99.4%.
As for `COc1cc(-c2ccc3c(c2)COC2(CCCNC2)O3)cc(OC)c1OC` (stereo not shown) [CBK092299], the viability at 28.5 h, 10 µM was 93%.
As to `Cn1cc2c(n1)[C@H]1CN(C(=O)c3cc(C(F)(F)F)n(C)n3)C[C@H]1C2` [CBK283399], the viability at 28.5 h, 10 µM amounted to 88.5%.
With `O=C1NCCNC(=O)C2(CCCCOc3ccccc31)CCN(C(=O)c1ccnnc1)CC2` [CBK292105], the viability at 28.5 h, 10 µM is 107%.
Same read-out and setting: the value for `O[C@@]1(c2ccccn2)CC[C@H]2CN(Cc3ccc(F)c(F)c3)C[C@H]21` [CBK285456] was 107%; that for `O=C(O)C1CC(=O)N(c2ccc(Br)cc2)C1` (stereo not shown) [CBK286998] was 87.7%.
Take `Cc1noc(C)c1NC(=O)c1cscn1` [CBK200397]: the viability at 28.5 h, 10 µM is 95.2%.
On the same count and under the same terms, in the case of `CCCNc1nc(-c2cccc(O)c2)cn2ccnc12` [CBK066395] it was 93.5%; in that of `Cc1ccc(C(=O)NC2CCN(C(=O)Nc3cc(Cl)ccc3F)CC2)s1` [CBK305243], 88.8%.
